Reference: US12318385B2, “Pharmaceutical composition comprising PARP inhibitors” (Jiangsu Hengrui Medicine CO., LTD., priority 2018, dated 2025)
Like-named read-outs stand apart in the source and are kept apart here.

Experiment: Solubility of compound represented by formula I in different solvents
Assay type: physicochemical
Details: for solubility at 30 min: thermodynamic from solid, read-out: Approximate Solubility
Procedure: Referring to tests under the General Notices, Volume II, Chinese Pharmacopoeia 2010, excessive compounds represented by formula I which were grinded to fine powder were weighed and transferred in a certain amount of solvent (25° C.±2° C.), and shaken vigorously for 30 s every 5 min. The dissolution of the drug was observed within 30 min. Then the solution was filtered, the initial filtrate was discarded, and the concentration of the successive filtrate was tested. The solubility was calculated.

In the case of `O=C(c1cc(Cc2n[nH]c(=O)c3ccccc23)ccc1F)N1CCn2nc(C(F)(F)F)nc2C1` [Compound represented by formula I], the “Solubility (descriptive term)” value (Acetone) is reported as “slightly soluble”, the “Solubility (descriptive term)” value (Anhydrous Ethanol) is reported as “very slightly soluble” and the “Solubility (descriptive term)” value (Tetrahydrofuran) is reported as “slightly soluble”. It also gave a solubility at 30 min (aqueous buffer, Acetate Buffer pH 4.5, 25° C.±2° C.) of 0.85 µg/mL, a solubility at 30 min (aqueous buffer, Phosphate Buffer pH 6.8, 25° C.±2° C.) of 0.59 µg/mL and a solubility at 30 min (aqueous with cosolvent or surfactant or cyclodextrin, 5% Polysorbate 80 Aqueous Solution, 25° C.±2° C.) of 19.5 µg/mL. The “Solubility (descriptive term)” value (conventional aqueous solvents) was “practically insoluble”, the solubility at 30 min (organic solvent or mixture, Acetone, 25° C.±2° C.) was 4960 µg/mL and the solubility at 30 min (organic solvent or mixture, Anhydrous Ethanol, 25° C.±2° C.) was 458 µg/mL. The solubility at 30 min (organic solvent or mixture, Tetrahydrofuran, 25° C.±2° C.) was 8550 µg/mL and the solubility at 30 min (simulated gastric fluid, 0.1 mol/L Hydrochloric Acid, 25° C.±2° C.) was 0.78 µg/mL.
